Target: PDE4 (Homo sapiens, UniProt Q07343)
Test: PDE4 Assay Procedure ([3H]-cAMP SPA)
Format: biochemical
Settings: read-out: HPDE4B or IC50 PDE4
Procedure: Compounds to be tested were resuspended in DMSO at a stock concentration of 1 mM. The compounds were tested at different concentrations varying from 10 pM to 10 μM to calculate an IC50. These dilutions were done in 96-well plates. In some cases, plates containing diluted compounds were frozen before being assayed. In these cases, the plates were thawed at room temperature and stirred for 15 minutes.
Ten microliters of the diluted compounds were poured into a “low binding” assay plate. Eighty microliters of reaction mixture containing 50 mM Tris pH 7.5, 8.3 mM MgCl2, 1.7 mM EGTA, and 15 nM [3H]-cAMP were added to each well. The reaction was initiated by adding ten microliters of a solution containing PDE4. The plate was then incubated under stirring for 1 hour at room temperature. After incubation the reaction was stopped with 50 microlitres of SPA beads, and the reaction was allowed to incubate for another 20 minutes at room temperature before measuring radioactivity using standard instrumentation.
The reaction mixture was prepared by adding 90 ml of H2O to 10 ml of 10× assay buffer (500 mM Tris pH 7.5, 83 mM MgCl2, 17 mM EGTA), and 40 microlitres 1 μCi/μL [3H]-cAMP. SPA beads solution was prepared by adding 500 mg to […] H2O for a final concentration of 20 mg/ml beads and 18 mM zinc sulphate.

PDE4, sequence (Q07343 whole entry): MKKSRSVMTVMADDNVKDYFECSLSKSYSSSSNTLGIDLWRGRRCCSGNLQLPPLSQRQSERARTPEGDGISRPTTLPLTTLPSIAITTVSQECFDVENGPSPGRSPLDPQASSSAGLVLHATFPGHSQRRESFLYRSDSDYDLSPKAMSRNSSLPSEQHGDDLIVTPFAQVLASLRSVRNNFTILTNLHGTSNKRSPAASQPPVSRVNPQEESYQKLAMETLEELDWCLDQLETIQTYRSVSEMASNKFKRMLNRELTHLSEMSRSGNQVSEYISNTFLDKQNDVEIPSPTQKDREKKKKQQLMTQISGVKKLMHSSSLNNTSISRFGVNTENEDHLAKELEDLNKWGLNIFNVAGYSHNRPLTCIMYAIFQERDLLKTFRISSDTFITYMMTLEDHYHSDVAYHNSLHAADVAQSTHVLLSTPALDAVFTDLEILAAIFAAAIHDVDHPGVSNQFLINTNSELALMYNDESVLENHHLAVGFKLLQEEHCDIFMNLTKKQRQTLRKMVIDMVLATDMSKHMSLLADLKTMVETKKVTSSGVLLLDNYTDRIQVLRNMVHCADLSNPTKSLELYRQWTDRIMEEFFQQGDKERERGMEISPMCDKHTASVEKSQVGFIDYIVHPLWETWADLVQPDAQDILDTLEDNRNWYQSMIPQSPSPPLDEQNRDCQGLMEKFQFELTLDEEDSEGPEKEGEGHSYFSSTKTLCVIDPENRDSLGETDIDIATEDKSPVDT

In order of rising IC50:
1. CCn1nc(C(=O)OCOC(=O)C(C)(C)CC)cc(Nc2cncc3ccccc23)c1=O [Example 66, 2,2-Dimethylbutyryloxymethyl 1-ethyl-5-(isoquinolin-4-ylamino)-6-oxo-1,6-dihydropyridazine-3-carboxylate]  0.36 nM
2. CCn1nc(C(=O)OCc2ccc(Br)cc2)cc(Nc2cncc3ccccc23)c1=O [Example 51, 4-Bromobenzyl 1-ethyl-5-(isoquinolin-4-ylamino)-6-oxo-1,6-dihydropyridazine-3-carboxylate]  0.48 nM
3. CCn1nc(C(=O)OCc2cccc(Cl)c2)c(C(C)=O)c(Nc2cncc3ccccc23)c1=O [Example 69, 3-Chlorobenzyl 4-acetyl-1-ethyl-5-(isoquinolin-4-ylamino)-6-oxo-1,6-dihydropyridazine-3-carboxylate]  0.49 nM
4. CCn1nc(C(=O)OCCOc2ccccc2)cc(Nc2cncc3ccccc23)c1=O [Example 49, 2-Phenoxyethyl 1-ethyl-5-(isoquinolin-4-ylamino)-6-oxo-1,6-dihydropyridazine-3-carboxylate]  0.73 nM
5. CCn1nc(C(=O)OC(C)c2ccccc2)c(C(C)=O)c(Nc2cncc3ccccc23)c1=O (stereo not drawn) [Example 39, 1-Phenylethyl 4-acetyl-1-ethyl-5-(isoquinolin-4-ylamino)-6-oxo-1,6-dihydropyridazine-3-carboxylate]  1.5 nM
6. CCn1nc(C(=O)OCc2cccc(OC)c2)cc(Nc2cncc3ccccc23)c1=O [Example 11, 3-Methoxybenzyl 1-ethyl-5-(isoquinolin-4-ylamino)-6-oxo-1,6-dihydropyridazine-3-carboxylate]  1.6 nM
7. CCn1nc(C(=O)OCc2ccccc2)c(C(C)=O)c(Nc2cncc3ccccc23)c1=O [Example 33, Benzyl 4-acetyl-1-ethyl-5-(isoquinolin-4-ylamino)-6-oxo-1,6-dihydropyridazine-3-carboxylate]  1.9 nM
8. CCn1nc(C(=O)OC(C)c2ccccc2)cc(Nc2cncc3ccccc23)c1=O (stereo not drawn) [Example 14, 1-Phenylethyl 1-ethyl-5-(isoquinolin-4-ylamino)-6-oxo-1,6-dihydropyridazine-3-carboxylate]  2.4 nM
9. CCn1nc(C(=O)OCc2cccc(Cl)c2)cc(Nc2cncc3ccccc23)c1=O [Example 13, 3-Chlorobenzyl 1-ethyl-5-(isoquinolin-4-ylamino)-6-oxo-1,6-dihydropyridazine-3-carboxylate]  2.9 nM
10. CCCCCCCCOC(=O)c1nn(CC)c(=O)c(Nc2cncc3ccccc23)c1C(C)=O [Example 71, Octyl 4-acetyl-1-ethyl-5-(isoquinolin-4-ylamino)-6-oxo-1,6-dihydropyridazine-3-carboxylate]  5 nM
11. CCn1nc(C(=O)OCc2ccccc2)c(C(C)=O)c(Nc2cccnc2)c1=O [Example 26, Benzyl 4-acetyl-1-ethyl-6-oxo-5-(pyridin-3-ylamino)-1,6-dihydropyridazine-3-carboxylate]  5.1 nM
12. CCn1nc(C(=O)OC(C)Cc2ccccc2)c(C(C)=O)c(Nc2cncc3ccccc23)c1=O (stereo not drawn) [Example 38, 1-Methyl-2-phenylethyl 4-acetyl-1-ethyl-5-(isoquinolin-4-ylamino)-6-oxo-1,6-dihydropyridazine-3-carboxylate]  13 nM
13. CCOC(=O)c1nn(CC)c(=O)c(Nc2cncc3ccccc23)c1C(C)=O [Example 23, Ethyl 4-acetyl-1-ethyl-5-(isoquinolin-4-ylamino)-6-oxo-1,6-dihydropyridazine-3-carboxylate]  14 nM
14. CCn1nc(C(=O)OC(C)C)c(C(C)=O)c(Nc2cncc3ccccc23)c1=O [Example 27, Isopropyl 4-acetyl-1-ethyl-5-(isoquinolin-4-ylamino)-6-oxo-1,6-dihydropyridazine-3-carboxylate]  16 nM
15. CCn1nc(C(=O)OCc2ccsc2)cc(Nc2cnccc2C)c1=O [Example 10, Thiophen-3-ylmethyl 1-ethyl-5-(4-methylpyridin-3-ylamino)-6-oxo-1,6-dihydropyridazine-3-carboxylate]  19 nM
16. CCn1nc(C(=O)OC2CCC2)c(C(C)=O)c(Nc2cncc3ccccc23)c1=O [Example 36, Cyclobutyl 4-acetyl-1-ethyl-5-(isoquinolin-4-ylamino)-6-oxo-1,6-dihydropyridazine-3-carboxylate]  44 nM
17. CCn1nc(C(=O)OCc2ccccc2)cc(Nc2cnccc2C)c1=O [Example 1, Benzyl 1-ethyl-5-(4-methylpyridin-3-ylamino)-6-oxo-1,6-dihydropyridazine-3-carboxylate]  52 nM
18. CCn1nc(C(=O)OC(C)c2ccccc2)c(C(C)=O)c(Nc2cnccc2C)c1=O (stereo not drawn) [Example 41, 1-Phenylethyl 4-acetyl-1-ethyl-5-[(4-methylpyridin-3-yl)amino]-6-oxo-1,6-dihydropyridazine-3-carboxylate]  69 nM

From US7960383B2, “Pyridazin-3(2H)-one derivatives and their use as PDE4 inhibitors” (Laboratorios Almirall SA, priority 2004, dated 2011)
